Patent US12612424B2, “HPK1 inhibitors and uses thereof” (Regor Pharmaceuticals, Inc., priority 2019, dated 2026)
Like-named read-outs stand apart in the source and are kept apart here.

Molecular target: HPK1 (Homo sapiens, UniProt Q92918)
Test: HPK1 biochemical assay (ADP-GLO Kinase Assay)
Procedure, shortened: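 HPK1 (0.6 ng/μL final) activity was followed with MBP substrate and 10 μM ATP in Tris pH 7.5/MgCl2/BSA/DTT buffer, measured by ADP-Glo luminescence. Compounds were tested as 3-fold dilutions from 10 μM. IC50 came from a three-parameter logistic fit, with inhibition normalised to high/low controls.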

[1] = B*: testing performed in a first testing facility, read-out: HPK1 IC50 (nM) Relative, B*
[2] = N*: testing performed in a second testing facility, read-out: HPK1 IC50 (nM) Relative, N*

Sequence of HPK1 (Q92918 whole entry): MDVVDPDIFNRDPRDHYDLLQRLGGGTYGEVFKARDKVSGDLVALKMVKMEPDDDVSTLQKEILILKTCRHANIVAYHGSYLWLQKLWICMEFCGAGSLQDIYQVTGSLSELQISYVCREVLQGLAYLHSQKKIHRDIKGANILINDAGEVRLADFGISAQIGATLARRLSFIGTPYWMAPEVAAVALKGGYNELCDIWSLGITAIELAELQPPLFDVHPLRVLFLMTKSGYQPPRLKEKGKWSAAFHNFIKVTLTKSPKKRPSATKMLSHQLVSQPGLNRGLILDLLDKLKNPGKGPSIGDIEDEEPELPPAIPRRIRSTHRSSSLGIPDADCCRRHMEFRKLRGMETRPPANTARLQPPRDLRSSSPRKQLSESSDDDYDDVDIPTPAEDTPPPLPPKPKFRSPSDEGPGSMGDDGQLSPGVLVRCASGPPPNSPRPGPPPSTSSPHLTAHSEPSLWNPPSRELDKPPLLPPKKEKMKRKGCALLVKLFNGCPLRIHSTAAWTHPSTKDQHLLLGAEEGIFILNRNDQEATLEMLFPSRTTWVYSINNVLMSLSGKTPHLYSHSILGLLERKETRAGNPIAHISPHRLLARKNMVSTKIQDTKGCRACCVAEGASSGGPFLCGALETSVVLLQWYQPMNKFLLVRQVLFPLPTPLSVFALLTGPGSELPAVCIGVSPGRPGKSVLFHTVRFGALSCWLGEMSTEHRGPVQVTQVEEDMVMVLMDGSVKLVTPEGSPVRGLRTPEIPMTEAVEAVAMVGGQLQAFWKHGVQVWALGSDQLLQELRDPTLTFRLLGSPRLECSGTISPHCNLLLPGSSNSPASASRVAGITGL

SMILES | IC50 [1] [nM] | IC50 [2] [nM]
COc1cc2c(cc1Nc1ncc(Cl)c(-n3cc(P(C)(C)=O)c4ccccc43)n1)CN(C)CC2 [Example 1, (1-(5-Chloro-2-((6-methoxy-2-methyl-1,2,3,4-tetrahydroisoquinolin-7-yl)amino)pyrimidin-4-yl)-1H-indol-3-yl)dimethylphosphine oxide] | ≤ 100 | ≤ 100
COc1nc2c(cc1Nc1ncc(Cl)c(N3CCc4ccccc43)n1)CN(C)CC2 [Example 19, N-(5-chloro-4-(indolin-1-yl)pyrimidin-2-yl)-2-methoxy-6-methyl-5,6,7,8-tetrahydro-1,6-naphthyridin-3-amine] | ≤ 100 | ≤ 100
COc1cc2c(cc1Nc1ncc(Cl)c(N3CCc4cc(F)ccc43)n1)CN(C)CC2 [Example 20, N-(5-chloro-4-(5-fluoroindolin-1-yl)pyrimidin-2-yl)-6-methoxy-2-methyl-1,2,3,4-tetrahydroisoquinolin-7-amine] | ≤ 100 | 
COc1cc2c(cc1Nc1ncc(Cl)c(N3CCc4ccc(F)cc43)n1)CN(C)CC2 [Example 21, N-(5-chloro-4-(6-fluoroindolin-1-yl)pyrimidin-2-yl)-6-methoxy-2-methyl-1,2,3,4-tetrahydroisoquinolin-7-amine] | ≤ 100 | 
COc1cc2c(cc1Nc1ncc(Cl)c(N3CCc4ccccc43)n1)CN(C(C)C)CC2 [Example 22, N-(5-chloro-4-(indolin-1-yl)pyrimidin-2-yl)-2-isopropyl-6-methoxy-1,2,3,4-tetrahydroisoquinolin-7-amine] | ≤ 100 | 
COc1cc2c(cc1Nc1ncc(Cl)c(N3CCc4ccccc43)n1)CNCC2 [Example 23, N-(5-chloro-4-(indolin-1-yl)pyrimidin-2-yl)-6-methoxy-1,2,3,4-tetrahydroisoquinolin-7-amine] | ≤ 100 | 
COc1cc2c(cc1Nc1ncc(Cl)c(-n3ncc4ccccc43)n1)CN(C)CC2 [Example 24, N-(5-Chloro-4-(1H-indazol-1-yl)pyrimidin-2-yl)-6-methoxy-2-methyl-1,2,3,4-tetrahydroisoquinolin-7-amine] | ≤ 100 | 
COc1cc2c(cc1Nc1ncc(Cl)c(N3CC(C)(C)c4ccccc43)n1)CN(C)CC2 [Example 25, N-(5-Chloro-4-(3,3-dimethylindolin-1-yl)pyrimidin-2-yl)-6-methoxy-2-methyl-1,2,3,4-tetrahydroisoquinolin-7-amine] | ≤ 100 | 
COc1nc2c(cc1Nc1ncc(Cl)c(N3CCc4ncccc43)n1)CN(C)CC2 [Example 29, N-(5-Chloro-4-(2,3-dihydro-1H-pyrrolo[3,2-b]pyridin-1-yl)pyrimidin-2-yl)-2-methoxy-6-methyl-5,6,7,8-tetrahydro-1,6-naphthyridin-3-amine] | ≤ 100 | ≤ 100
COc1cc2c(cc1Nc1ncc(Cl)c(N3CC(C(=O)O)c4ccccc43)n1)CN(C)CC2 (centres unmarked) [Example 32, 1-(5-Chloro-2-((6-methoxy-2-methyl-1,2,3,4-tetrahydroisoquinolin-7-yl)amino)pyrimidin-4-yl)indoline-3-carboxylic acid] | ≤ 100 | 
COc1cc2c(cc1Nc1ncc(Cl)c(N3CC(C(N)=O)c4ccccc43)n1)CN(C)CC2 (centres unmarked) [Example 33, 1-(5-Chloro-2-((6-methoxy-2-methyl-1,2,3,4-tetrahydroisoquinolin-7-yl)amino)pyrimidin-4-yl)indoline-3-carboxamide] | ≤ 100 | 
COc1cc2c(cc1Nc1ncc(Cl)c(-n3cc(C(N)=O)c4ccccc43)n1)CN(C)CC2 [Example 34] | ≤ 100 | 
COc1cc2c(cc1Nc1ncc(Cl)c(-n3cc(C(=O)O)c4ccccc43)n1)CN(C)CC2 [Example 35] | ≤ 100 | 
COc1cc2c(cc1Nc1ncc3ccn(-c4ccccc4)c3n1)CN(C)CC2 [Example 36, 6-methoxy-2-methyl-N-(7-phenyl-7H-pyrrolo[2,3-d]pyrimidin-2-yl)-1,2,3,4-tetrahydroisoquinolin-7-amine] | ≤ 100 | ≤ 100
COc1cc2c(cc1Nc1ncc3ccn(-c4ccccn4)c3n1)CN(C)CC2 [Example 37, 6-Methoxy-2-methyl-N-(7-(pyridin-2-yl)-7H-pyrrolo[2,3-d]pyrimidin-2-yl)-1,2,3,4-tetrahydroisoquinolin-7-amine] | ≤ 100 | ≤ 100
